Our source for the MLD values is ChEMBL document CHEMBL1131805, “Synthesis and biological evaluation of analogs of the marine toxin polycavernoside A” (Bioorg Med Chem Lett, 1999).

Holding throughout (format): ADME
Data set [1] in a line: Minimal lethal dose in mice causing no scratching or eye damage, but frenetic jumping, severe spasms, and ultimately paralysis; if death did not occur within 30 min, total recovery was noted; range: 1.5-3.1. Conditions: mouse, in vivo, 0.5 h.
Data set [2] can be described thus: Minimal lethal dose in mice causing gradual progressive onset of severe scratching of face and body, spasms, paralysis, severe eye damage, and death; range: 0.2-0.4. Conditions: mouse, in vivo.
Data set [3] in a line: Minimal lethal dose in mice causing gradual progressive onset of severe scratching of face and body, spasms, paralysis (30 min after injection), severe eye damage, and death occurring within 24 h; range: 0.38-0.77. Conditions: mouse, in vivo.
Data set [4] in a line: Minimal lethal dose in mice showing no adverse symptoms seen. The conditions noted are these: mouse, in vivo.
Data set [5] in a line: Minimal lethal dose in mice causing gradual progressive onset of severe scratching of face and body, spasms, paralysis, severe eye damage, and death; range: 1.5-3.1. The conditions noted are these: mouse, in vivo.

`CC(C)/C=C/C=C/C=C/[C@H]1OC(=O)C[C@@H]2O[C@H](CC(=O)[C@@]3(O)O[C@H](C[C@H]3C)C1(C)C)C[C@H](O)[C@H]2C`: the MLD in data set [1] amounted to 1.5 mg/kg.

In the case of `CO[C@@H]1[C@H](OC)[C@H](O[C@@H]2[C@@H](OC)[C@H](O[C@H]3C[C@H]4CC(=O)[C@@]5(O)O[C@H](C[C@H]5C)C(C)(C)[C@@H](/C=C/C=C/C(C)C)OC(=O)C[C@H](O4)[C@@H]3C)OC[C@H]2OC(C)=O)O[C@@H](C)[C@H]1OC` [polycavernoside B], in data set [2], the MLD turned out to be 0.2 mg/kg.

`CO[C@@H]1[C@H](O[C@@H]2[C@@H](OC)[C@H](O[C@H]3C[C@H]4CC(=O)[C@@]5(O)O[C@H](C[C@H]5C)C(C)(C)[C@@H](/C=C/C#C/C=C/C(C)C)OC(=O)C[C@H](O4)[C@@H]3C)OC[C@H]2OC)O[C@@H](C)[C@@H](O)[C@@H]1OC` gave an MLD in data set [3] of 0.38 mg/kg.

As to `C[C@H]1[C@@H]2CC(=O)O[C@H](/C=C/I)C(C)(C)[C@H]3C[C@@H](C)[C@](O)(O3)C(=O)C[C@H](C[C@@H]1O)O2`, in data set [4], the MLD was above 13 mg/kg.

Compound `COC1C(O)C(C)OC(O[C@H]2C(OC)COC(O[C@H]3C[C@H]4CC(=O)[C@@]5(O)O[C@H](C[C@H]5C)C(C)(C)[C@@H](/C=C/c5ccccc5)OC(=O)C[C@H](O4)[C@@H]3C)[C@@H]2OC)[C@H]1OC` (stereo partly drawn) registered an MLD in data set [4] above 13 mg/kg.

On to `CO[C@@H]1[C@H](O[C@@H]2[C@@H](OC)[C@H](O[C@H]3C[C@H]4CC(=O)[C@@]5(O)O[C@H](C[C@H]5C)C(C)(C)[C@@H](/C=C/C=C/C=C/C(C)C)OC(=O)C[C@H](O4)[C@@H]3C)OC[C@H]2OC)O[C@@H](C)[C@@H](O)[C@@H]1OC` [polycavemoside A], for which, in data set [2], the MLD was found to be 0.2 mg/kg.

In turn, `CO[C@@H]1[C@H](O[C@@H]2[C@@H](OC)[C@H](O[C@H]3C[C@H]4CC(=O)[C@@]5(O)O[C@H](C[C@H]5C)C(C)(C)[C@@H](/C=C/C=C/C(C)C)OC(=O)C[C@H](O4)[C@@H]3C)OC[C@H]2OC)O[C@@H](C)[C@@H](O)[C@@H]1OC` had an MLD in data set [5] of 3.1 mg/kg.

On to `CO[C@@H]1[C@H](O[C@@H]2[C@@H](OC)[C@H](O[C@H]3C[C@H]4CC(=O)[C@@]5(O)O[C@H](C[C@H]5C)C(C)(C)[C@@H](/C=C/C=C/C5CCCCC5)OC(=O)C[C@H](O4)[C@@H]3C)OC[C@H]2OC)O[C@@H](C)[C@@H](O)[C@@H]1OC`, for which the MLD in data set [4] is above 13 mg/kg.
